Patent US10507212B2, “Method for use of homopiperazinium compounds in the treatment of cancer” (UNIVERSITÉ LAVAL, priority 2014, dated 2019)

Key:
A549 lung adenocarcinoma = experiment: In vitro combination treatment with cisplatin or taxol, A549 (MTT); type: cell-based, human; settings: A549, 3 days; increasing concentrations added to suboptimal doses of ASM-024
Experimental: The concomitant effect of ASM-024 and cisplatin or taxol on the proliferation of A549 lung adenocarcinoma and MCF7 breast cancer adenocarcinoma cells was assessed in vitro.
A549 cells (3.0×10^3cells/well) were first cultured with 10% FBS in F12K media and MCF7 cells (10×10^3 cells/well) with 10% FBS in EMEM media for 24 hours to allow cells to adhere to the plate at 37° C. in a humidified incubator with 5% CO2. The next day, the media was replaced in medium containing appropriate drug concentrations […] for an additional 72 hours. Cell viability was quantified using the MTT colorimetric assay (M2128, Sigma) at 575-690 nm.

[1] = test system: A549 human lung carcinoma cells; experiment: In vivo antitumor assay, A549 xenograft in Balb/c nude mice (Example 29); settings: day 49; ASM-024 45 mg/kg s.c. daily day 14-38; taxol 10 mg/kg i.p. days 21, 28, 35; cisplatin 2.5 mg/kg i.p. days 28, 35
Experimental: For the in vivo antitumor assay, A549 human lung carcinoma cells (3.5×106) in 50% F12K medium (Matrigel) were implanted subcutaneously in the flank of Balb/c nude mice (nu/nu, Charles River) and allowed to grow for 14 days. ASM-024 was administered daily by subcutaneous delivery at the dose of 45 mg/kg from day 14 to day 38 post cell inoculation. Taxol was administrated intraperitoneally at the dose of 10 mg/kg on days 21, 28 and 35. Cisplatin was administrated intraperioneally at the dose of 2.5 mg/kg on days 28 and 35. From day 14 to day 49, tumor length and width were measured once or twice a week with a caliper and tumor volume calculated according to the formula Volume=(width2×length)/2.

| Structure (SMILES) | inhibition of in vitro proliferation, combination (A549 lung adenocarcinoma) | A549 human carcinoma tumor growth (tumor volume) [1] |
| --- | --- | --- |
| CC(=O)O[C@H]1C(=O)[C@@]2(C)[C@H]([C@H](OC(=O)c3ccccc3)[C@]3(O)C[C@H](OC(=O)[C@H](O)[C@@H](NC(=O)c4ccccc4)c4ccccc4)C(C)=C1C3(C)C)[C@]1(OC(C)=O)CO[C@@H]1C[C@@H]2O [taxol, Paclitaxel] | potentiated the inhibition of in vitro proliferation | decrease in A549 human carcinoma tumor growth |
| N.N.[Cl][Pt][Cl] [Cisplatin] | potentiated the inhibition of in vitro proliferation | decrease in A549 human carcinoma tumor growth |
